Laboratory results from patent publication US20250248973A1, “CANNABINOID RECEPTOR 1 ANTAGONISTS/INVERSE AGONISTS AND USES THEREOF” (Corbus Pharmaceuticals, Inc., priority 2022, published 2025).

Legend:
[1] = target: Human CB1 Receptor-1 (hCB1) (Homo sapiens (Human), UniProt P21554); assay: hCB1 Gai cyclic AMP (cAMP) TR-FRET assay, antagonism of EC80 CP55940 with forskolin; type: cell-based; settings: hCB1 cells, 30 min pre-incubation
Description: (§1) Example 3. Biochemical Methods Human CB1 Receptor-1 (hCB1) and Human CB1 Receptor-1b (hCBib)
(§2) hCB1/hCB1 b Gai Cyclic AMP (cAMP) Assays: Cells were seeded in a 384-well plate at an appropriate density from frozen cells. The cAMP assays were performed according to the manufacturer's protocol using MULTISCREEN™ TR-FRET cAMP 1.0 No Wash Assay Kit. Cells (hCB1 or hCB1 b) were pre-incubated with customer compounds for 30 minutes at rt followed by addition of EC80 CP55940 concentration and Forskolin. Cells were then incubated for 20 minutes at 37C. The reaction was terminated by sequentially adding sequentially adding MULTISCREEN™ Eu-labeled cAMP and MULTISCREEN™ 650-labeled anti-cAMP antibody in lysis buffer. The plate was then incubated at rt for 30 minutes before reading fluorescent emissions at 620 nm and 665 with excitation at 314 nm on FlexStation III (Molecular Devices). The results are shown in Table 2 (“***” denotes an IC50<100 nM; “**” denotes an IC50 between 100 nM and 500 nM, and “*” denotes an IC50>500 nM).

[2] = target: Human CB1 Receptor-1b (hCB1b) (Homo sapiens (Human), UniProt P21554); assay: hCB1b Gai cyclic AMP (cAMP) TR-FRET assay, antagonism of EC80 CP55940 with forskolin; type: cell-based; settings: hCB1b cells, 30 min pre-incubation, read-out: CB1b IC50
Description: as §1, §2

Chain of Human CB1 Receptor-1 (hCB1) (P21554 whole entry): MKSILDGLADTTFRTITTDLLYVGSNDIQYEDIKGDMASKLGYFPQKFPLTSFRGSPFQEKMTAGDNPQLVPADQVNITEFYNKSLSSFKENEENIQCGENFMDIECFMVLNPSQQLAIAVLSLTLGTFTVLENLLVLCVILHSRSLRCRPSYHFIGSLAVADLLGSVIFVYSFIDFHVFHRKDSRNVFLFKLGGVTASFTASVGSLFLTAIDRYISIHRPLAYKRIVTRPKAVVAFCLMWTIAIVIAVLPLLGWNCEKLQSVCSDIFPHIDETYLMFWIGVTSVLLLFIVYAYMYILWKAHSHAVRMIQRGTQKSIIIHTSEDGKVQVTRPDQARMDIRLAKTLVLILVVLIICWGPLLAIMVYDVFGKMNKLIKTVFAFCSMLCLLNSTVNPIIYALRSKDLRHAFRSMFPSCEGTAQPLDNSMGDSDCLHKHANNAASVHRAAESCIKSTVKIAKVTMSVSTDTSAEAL
Chain of Human CB1 Receptor-1b (hCB1b) (P21554 other isoform, or with tags, fused parts or gaps): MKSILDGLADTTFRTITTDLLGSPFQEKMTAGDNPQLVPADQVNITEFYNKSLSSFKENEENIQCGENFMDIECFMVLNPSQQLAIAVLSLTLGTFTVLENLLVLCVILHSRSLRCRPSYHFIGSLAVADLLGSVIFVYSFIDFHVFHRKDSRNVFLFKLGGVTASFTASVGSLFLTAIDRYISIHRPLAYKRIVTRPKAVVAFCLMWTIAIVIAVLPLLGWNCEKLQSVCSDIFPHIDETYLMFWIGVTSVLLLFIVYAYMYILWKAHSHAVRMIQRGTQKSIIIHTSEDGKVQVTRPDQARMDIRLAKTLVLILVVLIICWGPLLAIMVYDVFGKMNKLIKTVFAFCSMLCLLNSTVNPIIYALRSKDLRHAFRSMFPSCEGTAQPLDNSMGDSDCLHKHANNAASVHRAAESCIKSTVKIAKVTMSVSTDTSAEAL

SMILES | IC50 [1] | IC50 [2]
C[C@H](CN/C(=N\S(=O)(=O)c1ccc(C(F)(F)F)cc1)N1C[C@H](c2ccccc2)C(c2ccc(Cl)cc2)=N1)S(N)(=O)=O [Compound 17, (S,E)-3-(4-chlorophenyl)-4-phenyl-N-((R)-2-sulfamoylpropyl)-N′-((4-(trifluoromethyl)phenyl)sulfonyl)-4,5-dihydro-1H-pyrazole-1-carboximidamide] | < 100 nM | > 500 nM
NS(=O)(=O)O[C@H]1C[C@@H](N/C(=N\S(=O)(=O)c2ccc(Cl)cc2)N2C[C@@H](c3ccccc3)C(c3ccc(Cl)cc3)=N2)C1 (single isomer, unassigned) [Compound 226] | > 500 nM | < 100 nM
CC(C)(CN/C(=N\S(=O)(=O)c1ccc(Cl)cc1)N1C[C@H](c2ccccc2)C(c2ccc(Cl)cc2)=N1)CS(N)(=O)=O [Compound 87, (S,E)-3-(4-chlorophenyl)-N′-((4-chlorophenyl)sulfonyl)-N-(2,2-dimethyl-3-sulfamoylpropyl)-4-phenyl-4,5-dihydro-1H-pyrazole-1-carboximidamide] | 100 to 500 nM | 100 to 500 nM
CN1CCN(S(=O)(=O)CCN/C(=N\S(=O)(=O)c2ccc(Cl)cc2)N2C[C@H](c3ccccc3)C(c3ccc(Cl)cc3)=N2)CC1 [Compound 157, (S,E)-3-(4-chlorophenyl)-N′-((4-chlorophenyl)sulfonyl)-N-(2-((4-methylpiperazin-1-yl)sulfonyl)ethyl)-4-phenyl-4,5-dihydro-1H-pyrazole-1-carboximidamide] | < 100 nM | 100 to 500 nM
NS(=O)(=O)C1CCN(/C(=N/S(=O)(=O)c2ccc(Cl)cc2)N2C[C@H](c3ccccc3)C(c3ccc(F)cc3)=N2)CC1 [Compound 111, (S,Z)-1-((((4-chlorophenyl)sulfonyl)imino)(3-(4-fluorophenyl)-4-phenyl-4,5-dihydro-1H-pyrazol-1-yl)methyl)piperidine-4-sulfonamide] | > 500 nM | > 500 nM
NS(=O)(=O)[C@H]1CC[C@@H](N/C(=N/S(=O)(=O)c2ccc(Cl)cc2)N2C[C@H](c3ccccc3)C(c3ccc(Cl)cc3)=N2)C1 (single isomer, unassigned) [Compound 145] | 100 to 500 nM | 100 to 500 nM
NS(=O)(=O)N1CC[C@@H](N/C(=N/S(=O)(=O)c2ccc(Cl)cc2)N2C[C@H](c3ccccc3)C(c3ccc(Cl)cc3)=N2)C1 [Compound 247, (S,Z)-3-(4-chlorophenyl)-N′-((4-chlorophenyl)sulfonyl)-4-phenyl-N-((R)-1-sulfamoylpyrrolidin-3-yl)-4,5-dihydro-1H-pyrazole-1-carboximidamide] | 100 to 500 nM | < 100 nM
NS(=O)(=O)[C@H]1CC[C@@H](N/C(=N/S(=O)(=O)c2ccc(Cl)cc2)N2C[C@H](c3ccccc3)C(c3ccc(F)cc3)=N2)C1 [Compound 147, (S,Z)-N′-((4-chlorophenyl)sulfonyl)-3-(4-fluorophenyl)-4-phenyl-N-((1R,3S)-3-sulfamoylcyclopentyl)-4,5-dihydro-1H-pyrazole-1-carboximidamide] | 100 to 500 nM | 100 to 500 nM
NS(=O)(=O)O[C@H]1C[C@@H](N/C(=N\S(=O)(=O)c2ccc(C(F)(F)F)cc2)N2C[C@H](c3ccccc3)C(c3ccc(Cl)cc3)=N2)C1 [Compound 227, (1R,3s)-3-((S,E)-3-(4-chlorophenyl)-4-phenyl-N′-((4-(trifluoromethyl)phenyl)sulfonyl)-4,5-dihydro-1H-pyrazole-1-carboximidamido)cyclobutyl sulfamate] | 100 to 500 nM | 
O=S(=O)(/N=C(\NCCS(=O)(=O)N1CCNCC1)N1C[C@H](c2ccccc2)C(c2ccc(Cl)cc2)=N1)c1ccc(Cl)cc1 [Compound 159, (S,E)-3-(4-chlorophenyl)-N′-((4-chlorophenyl)sulfonyl)-4-phenyl-N-(2-(piperazin-1-ylsulfonyl)ethyl)-4,5-dihydro-1H-pyrazole-1-carboximidamide] | < 100 nM | < 100 nM
C[C@@H](CS(N)(=O)=O)NC(=NS(=O)(=O)c1ccc(Cl)cc1)N1C[C@H](c2ccccc2)C(c2ccc(F)cc2)=N1 (single isomer, unassigned) [Compound 61] | 100 to 500 nM | 100 to 500 nM
NS(=O)(=O)[C@H]1C[C@H](N/C(=N/S(=O)(=O)c2ccc(Cl)cc2)N2C[C@H](c3ccccc3)C(c3ccc(Cl)cc3)=N2)C1 (single isomer, unassigned) [Compound 115] | < 100 nM | < 100 nM
CN(C)S(=O)(=O)CCNC(=NS(=O)(=O)c1ccc(Cl)cc1)N1C[C@H](c2ccccc2)C(c2ccc(F)cc2)=N1 [Compound 161, (S,E)-N′-((4-chlorophenyl)sulfonyl)-N-(2-(N,N-dimethylsulfamoyl)ethyl)-3-(4-fluorophenyl)-4-phenyl-4,5-dihydro-1H-pyrazole-1-carboximidamide] | 100 to 500 nM | 100 to 500 nM
Cn1cnc(S(=O)(=O)N=C(NCCS(N)(=O)=O)N2C[C@H](c3ccccc3)C(c3ccc(Cl)cc3)=N2)c1 [Compound 67, (S)-3-(4-chlorophenyl)-N′-((1-methyl-1H-imidazol-4-yl)sulfonyl)-4-phenyl-N-(2-sulfamoylethyl)-4,5-dihydro-1H-pyrazole-1-carboximidamide] | > 500 nM | > 500 nM
NS(=O)(=O)[C@H]1CC[C@@H](N/C(=N/S(=O)(=O)c2ccc(Cl)cc2)N2C[C@H](c3ccccc3)C(c3ccc(F)cc3)=N2)CC1 (single isomer, unassigned) [Compound 123] | > 500 nM | > 500 nM
C#Cc1ccccc1S(=O)(=O)N=C(NCCS(N)(=O)=O)N1C[C@H](c2ccccc2)C(c2ccc(Cl)cc2)=N1 [Compound 33, (S)-3-(4-chlorophenyl)-N′-((2-ethynylphenyl)sulfonyl)-4-phenyl-N-(2-sulfamoylethyl)-4,5-dihydro-1H-pyrazole-1-carboximidamide] | 100 to 500 nM | 

Next, values leading:

IC50 [1] | IC50 [2] | SMILES
< 100 nM | < 100 nM | NS(=O)(=O)N1CC(N/C(=N\S(=O)(=O)c2ccc(Cl)cc2)N2C[C@H](c3ccccc3)C(c3ccc(Cl)cc3)=N2)C1 [Compound 191, (S,E)-3-(4-chlorophenyl)-N′-((4-chlorophenyl)sulfonyl)-4-phenyl-N-(1-sulfamoylazetidin-3-yl)-4,5-dihydro-1H-pyrazole-1-carboximidamide]
100 to 500 nM | 100 to 500 nM | NS(=O)(=O)[C@H]1C[C@@H](N/C(=N/S(=O)(=O)c2ccc(Cl)cc2)N2C[C@H](c3ccccc3)C(c3ccc(Cl)cc3)=N2)C1 (single isomer, unassigned) [Compound 116]
> 500 nM | > 500 nM | NS(=O)(=O)CCNC(=NS(=O)(=O)c1cccnc1)N1C[C@H](c2ccccc2)C(c2ccc(F)cc2)=N1 [Compound 69, (S)-3-(4-fluorophenyl)-4-phenyl-N′-(pyridin-3-ylsulfonyl)-N-(2-sulfamoylethyl)-4,5-dihydro-1H-pyrazole-1-carboximidamide]
< 100 nM | 100 to 500 nM | C[C@@H](CS(N)(=O)=O)N/C(=N\S(=O)(=O)c1ccc(C(F)(F)F)cc1)N1C[C@@H](c2ccccc2)C(c2ccc(Cl)cc2)=N1 [Compound 26, (R,E)-3-(4-chlorophenyl)-4-phenyl-N-((S)-1-sulfamoylpropan-2-yl)-N′-((4-(trifluoromethyl)phenyl)sulfonyl)-4,5-dihydro-1H-pyrazole-1-carboximidamide]
> 500 nM | > 500 nM | NS(=O)(=O)CCCCN/C(=N\S(=O)(=O)c1ccc(Cl)cc1)N1C[C@H](c2ccccc2)C(c2ccc(Cl)cc2)=N1 [Compound 99, (S,E)-3-(4-chlorophenyl)-N′-((4-chlorophenyl)sulfonyl)-4-phenyl-N-(4-sulfamoylbutyl)-4,5-dihydro-1H-pyrazole-1-carboximidamide]
< 100 nM | < 100 nM | C[C@H](CN/C(=N\S(=O)(=O)c1ccc(F)cc1)N1C[C@H](c2ccccc2)C(c2ccc(F)cc2)=N1)S(N)(=O)=O [Compound 53, (S,E)-3-(4-fluorophenyl)-N′-((4-fluorophenyl)sulfonyl)-4-phenyl-N-((R)-2-sulfamoylpropyl)-4,5-dihydro-1H-pyrazole-1-carboximidamide]
< 100 nM | < 100 nM | C#Cc1ccc(S(=O)(=O)N=C(NCCS(N)(=O)=O)N2C[C@H](c3ccccc3)C(c3ccc(Cl)cc3)=N2)cc1 [Compound 21, (S)-3-(4-chlorophenyl)-N′-((4-ethynylphenyl)sulfonyl)-4-phenyl-N-(2-sulfamoylethyl)-4,5-dihydro-1H-pyrazole-1-carboximidamide]
< 100 nM | < 100 nM | NS(=O)(=O)CCNC(=NS(=O)(=O)c1cccc(Cl)c1)N1C[C@H](c2ccccc2)C(c2ccc(Cl)cc2)=N1 [Compound 31, (S)-3-(4-chlorophenyl)-N′-((3-chlorophenyl)sulfonyl)-4-phenyl-N-(2-sulfamoylethyl)-4,5-dihydro-1H-pyrazole-1-carboximidamide]
100 to 500 nM | 100 to 500 nM | NS(=O)(=O)[C@H]1CC[C@H](N/C(=N/S(=O)(=O)c2ccc(Cl)cc2)N2C[C@H](c3ccccc3)C(c3ccc(F)cc3)=N2)CC1 (single isomer, unassigned) [Compound 125]
